# Test results reported in article PMC8225008, “Development of Non-Ethoxypropanoic Acid Type Cryptochrome Inhibitors with Circadian Molecular Clock-Enhancing Activity by Bioisosteric Replacement” (Pharmaceuticals, 2021).
# How the values were obtained:
# E-box-LUC reporter = assay: E-box-LUC luciferase reporter assay, dose-response in stably transfected NIH3T3 cells; format: cell-based; conditions: Mus musculus, E-box-LUC reporter activity, NIH3T3, 36 h; for Emax: maximum response as a percentage of the vehicle-treated group, read-out: Max (%)
# Description: (§1) Materials for cell culture were purchased from Thermo Fisher Scientific, unless otherwise stated. NIH3T3 and HEK293T cells were maintained in Dulbecco’s modified Eagle medium supplemented with 5% fetal bovine serum and 100 U/mL penicillin/streptomycin in a humidified atmosphere containing 5% CO2 at 37 °C. Plasmids and transfection experiments for luciferase reporter assay were described in our previous report. For dose-response experiments, mouse NIH3T3 cells stably transfected with an E-box-LUC reporter were plated in 12-well culture plates, treated as indicated for 36 h, and subjected to luciferase assay. For transient transfections, we seeded HEK293T cells in 12-well culture plates and used Lipofectamine® 3000 reagent to transfect cells with the E-box-LUC reporter and the indicated clock gene expression plasmids together with a thymidine kinase promoter-driven Renilla luciferase (pRL-TK) plasmids. We kept total DNA levels constant by adding an empty pcDNA3.1 plasmid. After 24 h of transfection, cells were treated with vehicle (0.1% DMSO) or chemical compounds at various concentrations for 36 h. Cell extracts were prepared by incubating cells in 0.3 mL reporter lysis buffer for 15 min at room temperature. Luciferase activity was measured with a commercial dual luciferase assay kit (Promega, Madison, WI, USA).
# (§2) The EC50 values for luciferase reporter assay were calculated based on a logistic four-parametric equation using the mean values of intrinsic activation (SigmaPlot 10.0; Systat Software Inc., San Jose, CA, USA). The IC50 and t1/2 values for the cytochrome P450 inhibition assay and metabolic stability test were calculated by WinNonlin software (Pharsight, Mountain View, CA, USA). Pharmacokinetic parameters were calculated using non-compartmental analysis (WinNonlin v.8.3; Pharsight, Mountain View, CA, USA). Kinetic and equilibrium constants for SPR analysis were obtained by global fitting of the Langmuir 1:1 bimolecular kinetic model (ProteOn Manager v.3.1.0.6, Bio-Rad, Hercules, CA, USA). Circadian molecular clock-enhancing activities were expressed as means ± SE and statistically evaluated by Student’s t-test or one-way analysis of variance (ANOVA) followed by Newman–Keuls multiple comparison test for post hoc comparisons. The significance level for the analyses was set at p < 0.05.
# [1] = Metabolic stability test in pooled human liver microsomes; format: in vitro ADME; conditions: pooled HLMs 1.0 mg/mL, 1 μM compound, NADPH generating system, read-out: t1/2 in HLMs
# Description: The metabolic stability of KS15, 5d, or 2d was evaluated using pooled HLMs. Pooled HLMs (1.0 mg/mL), a potassium phosphate buffer, and a test compound (1 μM) were pre-incubated (37 °C, 5 min). To initiate the reaction, the NADPH generating system was added to the samples and incubated for specific time points (0, 5, 15, 20, 45, and 60 min). Then, aliquots were taken and reactions terminated in acetonitrile containing IS. After centrifugation, supernatants were analyzed using LC-MS/MS to determine KS15, 5d, or 2d concentrations in samples. Analyte separation was performed using a Kinetex C18 column (100 mm × 2.1 mm, 2.6 μm ID., Phenomenex). The mobile phase solvent A was 0.1% formic acid in water, and solvent B was 0.1% formic acid in acetonitrile. Gradient separation was performed as follows: 0–3 min (10–90% B) and 3.1–8 min (10% B). The flow rate was 0.2 mL/min, and the run time was 8 min for each sample. Electrospray ionization was conducted in positive ion mode at 4 kV. […] Quantitation was performed in the SRM of the [M+H]^+ ion and the related product ion for each test compound and IS: KS-15 (m/z 420 > 169, CE 30 eV), 5d (m/z 359 > 206, CE 20 eV), 2d (m/z 345 > 192, CE 22 eV), and IS (m/z 295 > 100, CE 17 eV).
# as §2, with “Kinetic and equilibrium constants for SPR analysis were obtained by global fitting of the Langmuir 1:1 bimolecular kinetic model (ProteOn Manager v.3.1.0.6, Bio-Rad, Hercules, CA, USA).” left out, “The significance level for the analyses was set at p < 0.05.” left out
# [2] = test system: Per2-luciferase knock-in (Per2-Luc-KI) fibroblast cultures; assay: Real-time bioluminescence monitoring of DEX-synchronized Per2-Luc-KI fibroblast cultures; format: cell-based, mouse; conditions: 20 μM, DEX-synchronized Per2-Luc-KI fibroblasts
# Description: For real-time bioluminescence monitoring, we used mouse embryonic fibroblast (MEF) cultures established from Per2-LUC-KI mice. […] The medium was then replaced with a recording medium containing 0.1 mM D-luciferin (Promega) along with vehicle (0.1% DMSO), KS15 (20 μM), 5d (20 μM), or 2d (20 μM). Light emission for 2 min at intervals of 20 min was integrated using a dish-type wheeled luminometer (Kronos-Dio, ATTO Cooperation, Tokyo, Japan). Background-subtracted bioluminescence profiles were analyzed using Cosinor analysis software (available at http://www.circadian.org, last accessed on 19 May 2021).
# as §2
# hCRY1 = target: T1, hCRY1 (Homo sapiens, UniProt Q16526); assay: Suppressive action of CRY1 on CLOCK:BMAL1-activated E-box-LUC reporter activity in transiently transfected HEK293T cells; format: cell-based; design: expressed in transfected cells; host or cells: HEK293T; conditions: co-expression of human CRY1, 36 h treatment
# T1 sequence (Q16526 1-586): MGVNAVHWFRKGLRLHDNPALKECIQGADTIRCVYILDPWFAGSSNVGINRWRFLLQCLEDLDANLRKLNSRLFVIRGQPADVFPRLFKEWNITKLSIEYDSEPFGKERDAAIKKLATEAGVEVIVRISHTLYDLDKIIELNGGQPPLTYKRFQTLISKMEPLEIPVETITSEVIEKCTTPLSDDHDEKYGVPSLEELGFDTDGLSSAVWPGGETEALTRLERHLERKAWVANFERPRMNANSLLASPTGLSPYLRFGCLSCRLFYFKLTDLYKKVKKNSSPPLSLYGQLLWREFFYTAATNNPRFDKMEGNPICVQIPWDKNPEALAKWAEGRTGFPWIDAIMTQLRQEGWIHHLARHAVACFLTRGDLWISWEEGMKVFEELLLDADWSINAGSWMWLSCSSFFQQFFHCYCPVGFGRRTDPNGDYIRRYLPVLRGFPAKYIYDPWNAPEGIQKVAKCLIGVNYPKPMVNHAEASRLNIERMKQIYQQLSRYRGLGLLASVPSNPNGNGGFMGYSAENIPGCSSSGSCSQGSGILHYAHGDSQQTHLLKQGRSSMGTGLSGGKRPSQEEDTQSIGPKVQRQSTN
# Description: as §1
EC50 (E-box-LUC reporter),half-life at 1 μM [1],Amplitude of cyclic Per2 expression [2],Robustness of the rhythm (Cosinor regression) [2],Compound,Emax (E-box-LUC reporter),Effect on CRY1-suppressed CLOCK:BMAL1-activated E-box-mediated transcription (hCRY1)
10.2 µM,> 60 min,significantly augmented the amplitude,barely affect the robustness,"CC(=NOCc1ccc([N+](=O)[O-])cc1)c1cccc(OCC(=O)O)c1 [Compound 2d, 2-(3-(1-(((4-nitrobenzyl)oxy)imino)ethyl)phenoxy)acetic acid]",161%,dose-dependently restored E-box-mediated transcriptional activities
6.44 µM,2.4 min,significantly augmented the amplitude,barely affect the robustness,"COC(=O)COc1cccc(C(C)=NOCc2ccc([N+](=O)[O-])cc2)c1 [Compound 5d, Methyl 2-(3-(1-(((4-nitrobenzyl)oxy)imino)ethyl)phenoxy)acetate]",193%,dose-dependently restored E-box-mediated transcriptional activities
